Data: patent EP0095292A1, “5-(2-halogenovinyl)-2'-deoxyuridine derivatives, processes for their preparation, pharmaceutical compositions containing them, and their use in treating viral infections"” (BEECHAM GROUP PLC, priority 1982, dated 1983)
pIC50: −log10 of the molar value. Where two headings read alike, the source gives them in different places.

Legend:
[1] = system: Herpes simplex type 1 virus (HFEM strain); assay: Plaque reduction assay in virus-infected Vero cells (agarose overlay, 4 days); type: cell-based; conditions: Human alphaherpesvirus 1, 96 h, concentration causing a 50% reduction in the number of virus plaques, 4 days incubation, read-out: PDD50 (the source's name); for pIC50: molar units
Description: (§1) Vero (African Green Monkey Kidney) cells were grown to confluence in 24 well multidishes, each well being 1.6 cm in diameter. The cells were infected with Herpes simplex type 1 virus (HFEM strain) and overlaid with 0.5 mL of 0.9% agarose (w/v) in maintenance medium. Test compounds prepared in maintenance medium in concentrations ranging from […] in half-log dilution steps, were added in 0.5 mL volume. The virus infected cultures were then incubated at 37^0CC for 4 days before fixing in 4% formaldehyde solution and staining with carbolfuchsin.

[2] = Cytotoxicity observed in the plaque reduction assay cultures; type: cell-based; conditions: african green monkey, vero cells; minimum concentration of test compound which caused cytotoxicity; virus-infected Vero cultures, 4 days; read-out: MTD
Description: as §1

pIC50 [1]	IC50 [1]	Structure (SMILES)	MCC at 96 h [2]
5.68	1.5 µg/mL	O=C(OC[C@H]1O[C@@H](n2cc(/C=C/Br)c(=O)[nH]c2=O)C[C@@H]1O)OC[C@H]1O[C@@H](n2cc(/C=C/Br)c(=O)[nH]c2=O)C[C@@H]1O [Example 1, bis-[5-(E-2-Bromovinyl)-2'-deoxyuridin-5'-yl] carbonate]	100 µg/mL
4.82	12.4 µg/mL	CC(=O)O[C@H]1C[C@H](n2cc(/C=C/Br)c(=O)[nH]c2=O)O[C@@H]1COC(=O)OC[C@H]1O[C@@H](n2cc(/C=C/Br)c(=O)n(C(C)=O)c2=O)C[C@@H]1OC(C)=O [Example 2, 3',3'-Q-3-Triacetyl-bis-[5-(E-2-bromovinyl)-2'-deoxyuridin-5'-yl] carbonate]	100 µg/mL
4.96	8.5 µg/mL	CC(=O)O[C@H]1C[C@H](n2cc(/C=C/Br)c(=O)[nH]c2=O)O[C@@H]1COC(=O)OC[C@H]1O[C@@H](n2cc(/C=C/Br)c(=O)[nH]c2=O)C[C@@H]1OC(C)=O [Example 3, bis-[3'-O-Acetyl-5-(E-2-bromovinyl)-2'-deoxyuridin-5'-yl] carbonate]	100 µg/mL
6.30	0.34 µg/mL	O=C(O[C@H]1C[C@H](n2cc(/C=C/Br)c(=O)[nH]c2=O)O[C@@H]1CO)O[C@H]1C[C@H](n2cc(/C=C/Br)c(=O)[nH]c2=O)O[C@@H]1CO [Example 4, bis-[5-(E-2-Bromovinyl)-2'-deoxyuridin-3'-yl] carbonate]	100 µg/mL
7.00	0.07 µg/mL	O=C(n1c(=O)c(/C=C/Br)cn([C@H]2C[C@H](O)[C@@H](CO)O2)c1=O)n1c(=O)c(/C=C/Br)cn([C@H]2C[C@H](O)[C@@H](CO)O2)c1=O [Example 5, 3,3-Carbonyl-bis-[5-(E-2-bromovinyl)-2'-deoxyuridine]]	100 µg/mL
5.19	4.8 µg/mL	O=C(CCC(=O)OC[C@H]1O[C@@H](n2cc(/C=C/Br)c(=O)[nH]c2=O)C[C@@H]1O)OC[C@H]1O[C@@H](n2cc(/C=C/Br)c(=O)[nH]c2=O)C[C@@H]1O [Example 6, bis-[5-(E-2-Bromovinyl)-2'-deoxyuridin-5'-yl] succinate]	100 µg/mL
6.85	0.12 µg/mL	O=C(CCCCCCCCC(=O)OC[C@H]1O[C@@H](n2cc(/C=C/Br)c(=O)[nH]c2=O)C[C@@H]1O)OC[C@H]1O[C@@H](n2cc(/C=C/Br)c(=O)[nH]c2=O)C[C@@H]1O [Example 7, bis-[5-(E-2-Bromovinyl)-2'-deoxyuridin-5'-yl] sebacate]	100 µg/mL
